Assay results taken from the supplement of paper PMC10307832.

Compound: C1CN(CCN1)C2=CC=C(C=C2)C3=CN4C(=C(C=N4)C5=CC=NC6=CC=CC=C56)N=C3 [DM3189]
Assay: relative viability (nuclei count vs DMSO), 5 days (fraction); higher = more cells survive
How it was run: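 Viability was read as treated-well nuclei divided by vehicle-well nuclei, using the median across plates. Lung cancer cell lines in 1536-well plates were kept overnight at 37 °C, pinned with five √10-spaced library-drug doses, and after 5 days were Hoechst-stained, imaged at 4× and counted in MetaXpress. Plates passed only with control CV below 25% and at least one doubling.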

| Cell Line | relative viability (0.08 µM) | relative viability (0.253 µM) | relative viability (0.8 µM) | relative viability (2.53 µM) |
| --- | --- | --- | --- | --- |
| 201T | 0.981 | 0.981 | 0.843 | 1.04 |
| A-427 | 1.19 | 1 | 0.93 | 0.947 |
| ABC-1 | 1.12 | 0.847 | 0.752 | 0.829 |
| BEN | 0.929 | 0.925 | 0.967 | 0.981 |
| CAL-12T | 1.06 | 0.927 | 0.975 | 1.09 |
| COR-L23 | 1.06 | 0.95 | 0.758 | 0.95 |
| COR-L 105 | 1.22 | 0.95 | 0.853 | 0.808 |
| ChaGo-K-1 | 1.01 | 0.997 | 0.971 | 1 |
| EKVX | 1.21 | 0.949 | 0.887 | 1 |
| EMC-BAC-2 | 1.09 | 0.898 | 0.936 | 1.22 |
| EPLC-272H | 0.975 | 0.823 | 0.917 | 0.896 |
| H3255 | 1.18 | 0.979 | 0.899 | 1.13 |
| HARA | 1.07 | 0.921 | 1.01 | 1.04 |
| HCC-15 | 1.07 | 0.923 | 0.91 | 0.942 |
| HCC-44 | 1.05 | 0.957 | 0.869 | 0.934 |
| HCC-78 | 1.03 | 0.925 | 0.845 | 0.933 |
| HCC-366 | 1.05 | 0.905 | 0.925 | 0.989 |
| HCC-827 | 1.02 | 1 | 0.956 | 0.983 |
| HOP-62 | 1.08 | 0.945 | 0.932 | 1.03 |
| IA-LM | 1.2 | 1.11 | 1.06 | 1.21 |
| LC-2-ad | 1.07 | 1 | 0.874 | 1.05 |
| LCLC-97TM1 | 1.06 | 0.806 | 0.797 | 0.644 |
| LCLC-103H | 1.06 | 0.935 | 0.951 | 1.02 |
| LK-2 | 0.687 | 0.657 | 0.633 | 0.537 |
| LOU-NH91 | 1.16 | 0.921 | 0.832 | 0.924 |

| Cell Line | relative viability (0.08 µM) | relative viability (0.253 µM) | relative viability (0.8 µM) | relative viability (2.53 µM) |
| --- | --- | --- | --- | --- |
| LU99A | 1.05 | 0.912 |  | 0.933 |
| LXF-289 | 0.996 | 1.04 | 0.973 | 1.14 |
| NCI-H23 | 1.13 | 0.805 | 0.804 | 0.842 |
| NCI-H322M | 1.06 | 0.907 | 0.874 | 0.707 |
| NCI-H358 | 1.01 | 0.869 | 0.843 | 0.913 |
| NCI-H441 | 1.26 | 0.955 | 1.02 | 0.981 |
| NCI-H460 | 1.01 | 0.949 | 0.855 | 1.12 |
| NCI-H520 | 1.05 | 0.79 | 0.844 | 0.683 |
| NCI-H596 | 1.13 | 0.85 | 1.05 | 0.996 |
| NCI-H647 | 0.954 | 0.824 | 0.734 | 0.794 |
| NCI-H650 | 1.09 | 0.848 | 0.877 | 0.965 |
| NCI-H661 | 1.04 | 0.949 | 1.02 | 1.11 |
| NCI-H727 | 1.02 | 0.815 | 0.735 | 0.986 |
| NCI-H838 | 0.978 | 0.909 | 0.764 | 0.922 |
| NCI-H1355 | 1.01 | 0.968 | 0.842 | 0.951 |
| NCI-H1395 | 1.03 | 0.834 | 0.697 | 0.945 |
| NCI-H1437 | 1.05 | 0.995 | 0.989 | 1 |
| NCI-H1563 | 1.06 | 0.958 | 1.03 | 1.12 |
| NCI-H1650 | 1.09 | 0.923 | 0.901 | 0.928 |
| NCI-H1651 | 1.03 | 1.02 | 0.96 | 1.16 |
| NCI-H1666 | 1.04 | 1.02 | 1.1 | 1.12 |
| NCI-H1703 | 0.951 | 0.916 | 0.825 | 0.767 |
| NCI-H1734 | 1.13 | 0.95 | 0.916 | 0.888 |
| NCI-H1755 | 0.989 | 0.987 | 0.811 | 1.04 |
| NCI-H1792 | 1.27 | 1 | 0.712 | 0.868 |

| Cell Line | relative viability (0.08 µM) | relative viability (0.253 µM) | relative viability (0.8 µM) | relative viability (2.53 µM) |
| --- | --- | --- | --- | --- |
| NCI-H1793 | 1.22 | 0.991 | 0.929 | 1.01 |
| NCI-H1915 | 1.03 | 0.942 | 0.793 | 0.87 |
| NCI-H1944 | 1.19 | 0.991 |  | 1.02 |
| NCI-H1975 | 1.07 | 0.972 | 0.793 | 0.881 |
| NCI-H1993 | 1.01 | 0.913 | 0.831 | 1.05 |
| NCI-H2009 | 1.1 | 1.03 | 0.893 | 1.05 |
| NCI-H2023 | 1 | 0.955 | 0.978 | 0.854 |
| NCI-H2085 | 1 | 0.933 | 1.04 | 1.03 |
| NCI-H2087 | 1.26 | 1.02 | 1.08 | 0.979 |
| NCI-H2126 | 1.12 | 1.01 | 0.961 | 0.942 |
| NCI-H2170 | 1.06 | 1.01 | 0.981 | 0.946 |
| NCI-H2228 | 1.18 | 1.1 | 0.811 | 0.447 |
| NCI-H2342 | 0.988 | 0.99 | 0.948 | 0.97 |
| NCI-H2347 | 1.2 | 1.03 | 0.945 | 1.02 |
| NCI-H2405 | 1.1 | 0.975 | 0.951 | 1.03 |
| NCI-H3122 | 0.992 | 0.901 | 0.905 | 0.975 |
| PC-3 [JPC-3] | 1.13 | 1.01 | 1.04 | 1.1 |
| PC-14 | 1.14 | 0.954 | 0.871 | 0.932 |
| RERF-LC-KJ | 1.16 | 1.04 | 1.04 | 1.05 |
| SK-LU-1 | 1.03 | 0.793 | 0.814 | 0.749 |
| SK-MES-1 | 1.04 | 0.981 | 0.853 | 0.94 |
| SW 900 | 1.06 | 0.694 | 0.882 | 0.887 |
| SW 1573 | 1.06 | 0.938 | 0.903 | 0.81 |
| UMC-11 | 1.05 | 0.958 | 0.816 | 0.795 |
